Experiments:
Settings in all cases: exposure time: 72 h
E34 [1] = patient-derived glioblastoma stem cells of proneural subtype; experiment: surviving fraction (nuclei count normalised to DMSO); higher = more cells surviving (less toxic)
E13 [2] = patient-derived glioblastoma stem cells of classical subtype; experiment: as above
E28 [3] = patient-derived glioblastoma stem cells of classical subtype; experiment: as above
E21 [4] = patient-derived glioblastoma stem cells of mesenchymal subtype; experiment: as above
E31 [5] = patient-derived glioblastoma stem cells of proneural subtype; experiment: as above
FT3469 [6] = normal neural stem cell line; experiment: as above
E57 [7] = patient-derived glioblastoma stem cells of mesenchymal subtype; experiment: as above
E34 [8] = experiment: phenotypic distance (Euclidean, principal components) from DMSO controls (arbitrary units); higher = stronger morphological change
E13 [9] = experiment: as above
E28 [10] = experiment: as above
E21 [11] = experiment: as above
E31 [12] = experiment: as above
FT3469 [13] = experiment: as above
E57 [14] = experiment: as above
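Wherever phenotypic distance (Euclidean, principal components) from DMSO controls is given: cell Painting imaging in 384-well plates, CellProfiler features reduced to at least 20 principal components, Euclidean distance versus same-plate DMSO vehicle wells (0.1% v/v), median over six images per well.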
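Wherever surviving fraction (nuclei count normalised to DMSO) is given: nuclei counted by high-content imaging of Hoechst-stained cells in laminin-coated 384-well plates, relative to 0.1% DMSO vehicle wells, with staurosporine as cell-death control.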

CC(C)CC(=O)N[C@H](C(=O)N[C@H](C(=O)N[C@@H](CC(C)C)[C@@H](O)CC(=O)N[C@@H](C)C(=O)N[C@@H](CC(C)C)[C@@H](O)CC(=O)O)C(C)C)C(C)C [Pepstatin A]
Settings	phenotypic distance	surviving fraction
E13 [2], 4.1 nM	–	1.06
E13 [2], 12.3 nM	–	1.08
E13 [2], 37 nM	–	0.987
E13 [2], 111.1 nM	–	0.969
E13 [2], 333.3 nM	–	0.939
E13 [2], 1000 nM	–	1.07
E13 [2], 3000 nM	–	0.973
E13 [9], 4.1 nM	3.07	–
E13 [9], 12.3 nM	0.418	–
E13 [9], 37 nM	0.54	–
E13 [9], 111.1 nM	2.55	–
E13 [9], 333.3 nM	0.565	–
E13 [9], 1000 nM	1.06	–
E13 [9], 3000 nM	1.04	–
E21 [4], 4.1 nM	–	1.08
E21 [4], 12.3 nM	–	1.07
E21 [4], 37 nM	–	1.01
E21 [4], 111.1 nM	–	1.05
E21 [4], 333.3 nM	–	0.985
E21 [4], 1000 nM	–	0.986
E21 [4], 3000 nM	–	0.943
E21 [11], 4.1 nM	0.741	–
E21 [11], 12.3 nM	0.806	–
E21 [11], 37 nM	0.616	–
E21 [11], 111.1 nM	0.484	–
E21 [11], 333.3 nM	0.724	–
E21 [11], 1000 nM	0.99	–
E21 [11], 3000 nM	0.905	–
E28 [3], 4.1 nM	–	0.953
E28 [3], 12.3 nM	–	1.07
E28 [3], 37 nM	–	1.14
E28 [3], 111.1 nM	–	1.15
E28 [3], 333.3 nM	–	1.06
E28 [3], 1000 nM	–	0.989
E28 [3], 3000 nM	–	0.92
E28 [10], 4.1 nM	0.473	–
E28 [10], 12.3 nM	0.719	–
E28 [10], 37 nM	0.825	–
E28 [10], 111.1 nM	1.73	–
E28 [10], 333.3 nM	0.834	–
E28 [10], 1000 nM	1.64	–
E28 [10], 3000 nM	0.785	–
E31 [5], 4.1 nM	–	0.988
E31 [5], 12.3 nM	–	1.1
E31 [5], 37 nM	–	1
E31 [5], 111.1 nM	–	0.89
E31 [5], 333.3 nM	–	0.936
E31 [5], 1000 nM	–	0.912
E31 [5], 3000 nM	–	0.801
E31 [12], 4.1 nM	0.911	–
E31 [12], 12.3 nM	0.626	–
E31 [12], 37 nM	0.894	–
E31 [12], 111.1 nM	0.552	–
E31 [12], 333.3 nM	0.816	–
E31 [12], 1000 nM	0.799	–
E31 [12], 3000 nM	0.946	–
E34 [1], 4.1 nM	–	1.05
E34 [1], 12.3 nM	–	1.18
E34 [1], 37 nM	–	0.988
E34 [1], 111.1 nM	–	1.19
E34 [1], 333.3 nM	–	0.959
E34 [1], 1000 nM	–	1.03
E34 [1], 3000 nM	–	0.906
E34 [8], 4.1 nM	0.998	–
E34 [8], 12.3 nM	1.15	–
E34 [8], 37 nM	0.793	–
E34 [8], 111.1 nM	1.47	–
E34 [8], 333.3 nM	1.37	–
E34 [8], 1000 nM	1.44	–
E34 [8], 3000 nM	0.964	–
E57 [7], 4.1 nM	–	1.04
E57 [7], 12.3 nM	–	1.08
E57 [7], 37 nM	–	1.01
E57 [7], 111.1 nM	–	1.02
E57 [7], 333.3 nM	–	1.11
E57 [7], 1000 nM	–	0.978
E57 [7], 3000 nM	–	0.901
E57 [14], 4.1 nM	0.859	–
E57 [14], 12.3 nM	0.774	–
E57 [14], 37 nM	0.554	–
E57 [14], 111.1 nM	0.499	–
E57 [14], 333.3 nM	1.2	–
E57 [14], 1000 nM	1.56	–
E57 [14], 3000 nM	1.57	–
FT3469 [6], 4.1 nM	–	0.981
FT3469 [6], 12.3 nM	–	1.14
FT3469 [6], 37 nM	–	1.08
FT3469 [6], 111.1 nM	–	1.05
FT3469 [6], 333.3 nM	–	1.07
FT3469 [6], 1000 nM	–	0.993
FT3469 [6], 3000 nM	–	1.07
FT3469 [13], 4.1 nM	0.569	–
FT3469 [13], 12.3 nM	0.775	–
FT3469 [13], 37 nM	0.359	–
FT3469 [13], 111.1 nM	0.585	–
FT3469 [13], 333.3 nM	0.718	–
FT3469 [13], 1000 nM	1.15	–
FT3469 [13], 3000 nM	0.856	–

N=C(NCCCCCCNC(=N)NC(=N)Nc1ccc(Cl)cc1)NC(=N)Nc1ccc(Cl)cc1 [Chlorhexidine]
Settings	phenotypic distance	surviving fraction
E13 [2], 4.1 nM	–	1.03
E13 [2], 12.3 nM	–	1.05
E13 [2], 37 nM	–	0.948
E13 [2], 111.1 nM	–	1.01
E13 [2], 333.3 nM	–	0.969
E13 [2], 1000 nM	–	0.943
E13 [2], 3000 nM	–	0.409
E13 [9], 4.1 nM	0.429	–
E13 [9], 12.3 nM	1.39	–
E13 [9], 37 nM	0.262	–
E13 [9], 111.1 nM	2.5	–
E13 [9], 333.3 nM	0.491	–
E13 [9], 1000 nM	0.464	–
E13 [9], 3000 nM	3.49	–
E21 [4], 4.1 nM	–	0.973
E21 [4], 12.3 nM	–	1.01
E21 [4], 37 nM	–	0.964
E21 [4], 111.1 nM	–	0.946
E21 [4], 333.3 nM	–	0.941
E21 [4], 1000 nM	–	0.899
E21 [4], 3000 nM	–	0.259
E21 [11], 4.1 nM	0.562	–
E21 [11], 12.3 nM	0.828	–
E21 [11], 37 nM	0.696	–
E21 [11], 111.1 nM	0.95	–
E21 [11], 333.3 nM	0.783	–
E21 [11], 1000 nM	0.943	–
E21 [11], 3000 nM	6.35	–
E28 [3], 4.1 nM	–	1.05
E28 [3], 12.3 nM	–	1.13
E28 [3], 37 nM	–	1.1
E28 [3], 111.1 nM	–	1.16
E28 [3], 333.3 nM	–	1.11
E28 [3], 1000 nM	–	0.694
E28 [3], 3000 nM	–	0.289
E28 [10], 4.1 nM	0.971	–
E28 [10], 12.3 nM	0.644	–
E28 [10], 37 nM	0.865	–
E28 [10], 111.1 nM	0.807	–
E28 [10], 333.3 nM	0.749	–
E28 [10], 1000 nM	1.41	–
E28 [10], 3000 nM	3.14	–
E31 [5], 4.1 nM	–	0.921
E31 [5], 12.3 nM	–	0.969
E31 [5], 37 nM	–	1.07
E31 [5], 111.1 nM	–	1.04
E31 [5], 333.3 nM	–	0.889
E31 [5], 1000 nM	–	0.765
E31 [5], 3000 nM	–	0.401
E31 [12], 4.1 nM	0.524	–
E31 [12], 12.3 nM	0.525	–
E31 [12], 37 nM	0.809	–
E31 [12], 111.1 nM	0.944	–
E31 [12], 333.3 nM	1.22	–
E31 [12], 1000 nM	2.29	–
E31 [12], 3000 nM	2.76	–
E34 [1], 4.1 nM	–	0.914
E34 [1], 12.3 nM	–	0.993
E34 [1], 37 nM	–	0.955
E34 [1], 111.1 nM	–	0.752
E34 [1], 333.3 nM	–	1.03
E34 [1], 1000 nM	–	0.892
E34 [1], 3000 nM	–	0.659
E34 [8], 4.1 nM	0.526	–
E34 [8], 12.3 nM	0.799	–
E34 [8], 37 nM	0.756	–
E34 [8], 111.1 nM	0.826	–
E34 [8], 333.3 nM	0.445	–
E34 [8], 1000 nM	0.747	–
E34 [8], 3000 nM	3.01	–
E57 [7], 4.1 nM	–	0.972
E57 [7], 12.3 nM	–	1.03
E57 [7], 37 nM	–	0.962
E57 [7], 111.1 nM	–	1.03
E57 [7], 333.3 nM	–	0.967
E57 [7], 1000 nM	–	0.838
E57 [7], 3000 nM	–	0.307
E57 [14], 4.1 nM	0.332	–
E57 [14], 12.3 nM	0.353	–
E57 [14], 37 nM	0.497	–
E57 [14], 111.1 nM	0.85	–
E57 [14], 333.3 nM	0.64	–
E57 [14], 1000 nM	1.98	–
E57 [14], 3000 nM	4.85	–
FT3469 [6], 4.1 nM	–	1.05
FT3469 [6], 12.3 nM	–	0.955
FT3469 [6], 37 nM	–	1.1
FT3469 [6], 111.1 nM	–	0.981
FT3469 [6], 333.3 nM	–	0.883
FT3469 [6], 1000 nM	–	0.806
FT3469 [6], 3000 nM	–	0.537
FT3469 [13], 4.1 nM	1.53	–
FT3469 [13], 12.3 nM	0.951	–
FT3469 [13], 37 nM	0.654	–
FT3469 [13], 111.1 nM	0.806	–
FT3469 [13], 333.3 nM	0.554	–
FT3469 [13], 1000 nM	1.03	–
FT3469 [13], 3000 nM	2.68	–

Source: the supplement of paper PMC13207355
